{"source": "patent US20260297136A1", "about": "“PEPTIDES WITH LIPOLYTIC, ANTI-LIPOGENIC, ANTIFIBROTIC AND ANTI-INFLAMMATORY ACTIVITY” (FUNDACIÓ HOSPITAL UNIVERSITARI VALL D'HEBRON - INSTITUT DE …, priority 2023, published 2026)", "key": {"[1]": {"system": "obesity and fatty liver disease mouse model", "assay": "Preventive effects in an obesity and fatty liver disease mouse model, Example 4", "format": "in vivo, C57BL6/J male mice", "conditions": "20 mg/kg/day sc, 8 weeks", "experimental": "(§1) C57BL6/J male mice were purchased and kept for quarantine and acclimatization for a period of about 7 days before initiation of every experiment. Mice were housed in clean and sterilized mice cages and maintained in a controlled environment with 22+3° C. temperature, 50+20% humidity, a light/dark cycle of 12 hours each and 15-20 fresh air changes per hour.\nFor Obesity and NAFLD induction, the animals were fed ad libitum, either with chow diet (150SP-10, Safe Diets) or 45% high-fat diet (TD.190179, Envigo) plus 30% fructose (F0127, Sigma Aldrich) in drinking water for 8 weeks in the daily presence of vehicle or a subcutaneous injection of GP6 (20 mg/kg/day). A group of mice (n=18) was randomly divided in two groups of 9 mice each. Both groups were fed with high fat diet and 30% fructose in the drinking water for 8 weeks to develop obesity and fatty liver disease. One group was treated with daily subcutaneous injections of vehicle (water) and the other with daily subcutaneous injection of GP6 (20 mg/kg/day) during the 8 weeks that last the experiment.\n(§2) At the end of the experiment mice were sacrificed, serum samples were extracted, tissues were weighted and part was fixed in paraformaldehyde for histology studies and part immediately frozen at −80 C for mRNA and protein expression studies as well as assessment of triglycerides.\nFor histological studies, livers and adipose tissue were fixed in 4% paraformaldehyde for 24 hours and embedded in paraffin. Serial […] sections were used for histological examination and stained with hematoxylin eosin (H&E) and Picrosirius red for histological examination following standard procedures. Briefly, sections were alcohol-xylol hydrated at room temperature, and subsequently, they were stained at room temperature in a solution of 0.1% Direct Red 80 (Sigma-Aldrich) in a saturated aqueous solution of [COMPOUND LEFT OUT] (Sigma-Aldrich) for 1 h. Following that, sections were rinsed twice in 0.5% acetic acid or 5 min, alcohol-xylol dehydrated and covered with Eukitt mounting medium (Sigma-Aldrich). These sections were examined with an Olympus BX61 microscope. Six random fields at 4× magnification from each slice were quantified using ImageJ software to determine the liver collagen deposition as the red stained area in the image. The stage of liver steatosis and/or fibrosis was assessed blinded by an experienced pathologist according to the NASH-clinical research network scoring system (Design and validation of a histological scoring system for nonalcoholic fatty liver disease. Kleiner D E, Brunt E M, Van Natta M, Behling C, Contos MJ, Cummings O W, Ferrell L D, Liu Y C, Torbenson M S, Unalp-Arida A, Yeh M, McCullough A J, Sanyal AJ; Nonalcoholic Steatohepatitis Clinical Research Network. Hepatology. 2005 June; 41(6):1313-21. doi: 10.1002/hep.20701; Transforming growth factor-beta 1: A new factor reducing hepatic SHBG production in liver fibrosis. Briansó-Llort L, Fuertes-Rioja L, Ramos-Perez L, Salcedo-Allende M T, Hernandez C, Simo R, Selva D M. J Cell Physiol. 2022 September; 237(9):3598-3613. doi: 10.1002/jcp.30818). […]\nHepatic TG content was measured from liver extracts using a Triglyceride Assay Kit (ab65336) following the manufacture's instructions.\nTotal RNA was extracted from mouse tissues using TRIzol reagent (Invitrogen SA). Reverse transcription was performed at 42° C. for 50 minutes using […] of total RNA, 200 U of Superscript II, and an oligo-dT primer and reagents provided by Invitrogen. An aliquot of the reverse transcription product was amplified in a […] reaction using SYBRGreen (Invitrogen SA) with appropriate oligonucleotide primer pairs corresponding mouse ACC, FAS, ACLY, PPARG, Col1A1, F4/80, TNFα, IL1β, IL6, TGFβ1, Leptin, Adiponectin and 18S (shown in table 7). […]"}, "[2]": {"system": "obesity and fatty liver disease mouse model", "assay": "Therapeutic effects in an obesity and fatty liver disease mouse model, Example 6", "format": "in vivo, C57BL6/J male mice", "experimental": "as §1\nFor Obesity and NAFLD induction, the animals were fed ad libitum, either with chow diet (150SP-10, Safe Diets) or 45% high-fat diet (TD.190179, Envigo) plus 30% fructose (F0127, Sigma Aldrich) in drinking water for 20 weeks. The therapeutic effect of a daily subcutaneous injection of GP6 (20 mg/kg/day) in this mouse model was assessed for 10 weeks, starting the treatment on week 10 of the experiment until week 20.\nA group of control mice (n=10) was fed with control diet and regular drinking water and a group of mice (n=30) obesity and fatty liver disease was induced for 10 weeks. At this point, mice were randomly divided in three groups of n=10, the first group was treated with daily subcutaneous injections of vehicle (water), the second group was treated with Telmisartan (5 mg/kg/day) in the drinking water and a subcutaneous injection of vehicle, and the third group with daily subcutaneous injection of GP6 (20 mg/kg/day) during 10 weeks.\nas §2\nThe histology studies, AST and ALT measurements, TG measurements, and the RNA analysis were performed as described in Example 4."}, "[3]": {"conditions": "blind pathologist, histology reduction confirmed"}, "[4]": {"conditions": "20 mg/kg/day sc, 10 weeks, vs vehicle"}, "[5]": {"conditions": "20 mg/kg/day sc, 10 weeks, blind pathologist, lipid reduction corroborated"}}}
{"compound": "CC[C@@H](C)[C@@H](NC(=O)[C@H](NC(=O)CNC(=O)[C@@H](CCC(=O)O)NC(=O)[C@H]1CCCN1C(=O)[C@@H](CC(=O)O)NC(=O)[C@@H](Cc1c[nH]c2ccccc12)NC(=O)[C@H](NC(=O)[C@@H](CCCNC(=N)N)NC(=O)[C@H](NC(=O)[C@@H](CCC(=O)O)NC(=O)[C@@H](Cc1ccccc1)NC(=O)[C@@H](CO)NC(=O)[C@@H](CO)NC(=O)[C@@H](CO)NC(=O)[C@H](NC(=O)[C@@H](CCCCN)NC(=O)[C@H](N)[C@H](C)O)[C@H](C)O)C(C)C)[C@H](C)O)C(C)C)C(=O)N[C@H](Cc1ccccc1)C(=O)N[C@H](Cc1ccc(O)cc1)C(=O)O", "note": "[GP6]", "values": [{"measurement": "ACC mRNA levels in liver", "setting": "[1]; vs vehicle", "result": "reduced the mRNA levels"}, {"measurement": "F480 mRNA levels in adipose tissue", "setting": "[1]; vs vehicle", "result": "reduced expression"}, {"measurement": "F480 mRNA levels in hepatic tissue", "setting": "[1]; vs vehicle", "result": "reduced expression"}, {"measurement": "FAS mRNA levels in liver", "setting": "[1]; vs vehicle", "result": "reduced the mRNA levels"}, {"measurement": "PPARγ mRNA levels in liver", "setting": "[1]; vs vehicle", "result": "reduced the mRNA levels"}, {"measurement": "Total body weight", "setting": "[1]; vs vehicle", "result": "significantly reduced"}, {"measurement": "adipose tissue fibrosis (Col1A1 mRNA expression in adipose tissue)", "setting": "[1]; vs vehicle", "result": "reduced adipose tissue fibrosis"}, {"measurement": "hepatic expression of IL1β", "setting": "[1]; vs vehicle", "result": "reduced the hepatic expression"}, {"measurement": "hepatic expression of IL6", "setting": "[1]; vs vehicle", "result": "reduced the hepatic expression"}, {"measurement": "hepatic expression of TNFα", "setting": "[1]; vs vehicle", "result": "reduced the hepatic expression"}, {"measurement": "total liver weight", "setting": "[1]; vs vehicle", "result": "significantly reduced"}, {"measurement": "weight increment (weight at week 8-weight at week 0)", "setting": "[1]; vs vehicle", "result": "significantly reduced"}, {"measurement": "weight of brown adipose tissue", "setting": "[1]; vs vehicle", "result": "significantly reduced"}, {"measurement": "weight of subcutaneous adipose tissue", "setting": "[1]; vs vehicle", "result": "significantly reduced"}, {"measurement": "weight of visceral adipose tissue", "setting": "[1]; vs vehicle", "result": "significantly reduced"}, {"measurement": "hepatic lipid accumulation (histology)", "setting": "[1]; vs vehicle, H&E", "result": "reduced significantly"}, {"measurement": "Brunt score", "setting": "[1]; [3]", "result": "confirmed"}, {"measurement": "Steatosis score", "setting": "[1]; [3]", "result": "confirmed"}, {"measurement": "percentage of steatosis", "setting": "[1]; [3]", "result": "confirmed"}, {"measurement": "hepatic triglyceride content (Liver TAG)", "setting": "[1]; histology reduction confirmed", "result": "confirmed"}, {"measurement": "AST serum levels", "setting": "[2]; 20 mg/kg/day sc, 10 weeks", "result": "reduced significantly"}, {"measurement": "hepatic fibrosis (picrosirius staining)", "setting": "[2]; 20 mg/kg/day sc, 10 weeks", "result": "did not showed hepatic fibrosis"}, {"measurement": "total body weight gain", "setting": "[2]; 20 mg/kg/day sc, 10 weeks", "result": "reducing total body weight gain"}, {"measurement": "reduction of hepatic lipid accumulation compared with Telmisartan", "setting": "[2]; 20 mg/kg/day sc, 10 weeks, vs Telmisartan 5 mg/kg/day", "result": "to a greater extend than Telmisartan treatment"}, {"measurement": "Total body weight versus control mice", "setting": "[2]; 20 mg/kg/day sc, 10 weeks, vs control diet mice", "result": "not significantly heavier than control mice"}, {"measurement": "ACC mRNA levels in hepatic tissue", "setting": "[2]; [4]", "result": "reduced the mRNA levels"}, {"measurement": "Col1A1 expression in hepatic tissue", "setting": "[2]; [4]", "result": "reduced expression levels"}, {"measurement": "F480 mRNA levels (adipose tissue inflammation)", "setting": "[2]; [4]", "result": "reduced expression"}, {"measurement": "F480 mRNA levels in hepatic tissue", "setting": "[2]; [4]", "result": "reduced expression"}, {"measurement": "IL1β expression (adipose tissue inflammation)", "setting": "[2]; [4]", "result": "reduced expression"}, {"measurement": "PPARγ mRNA levels in hepatic tissue", "setting": "[2]; [4]", "result": "reduced the mRNA levels"}, {"measurement": "TGFβ1 expression in hepatic tissue", "setting": "[2]; [4]", "result": "reduced expression levels"}, {"measurement": "adipose tissue fibrosis (Col1A mRNA expression)", "setting": "[2]; [4]", "result": "reduced adipose tissue fibrosis"}, {"measurement": "heart fibrosis (Col1A1 mRNA expression)", "setting": "[2]; [4]", "result": "reduced heart fibrosis"}, {"measurement": "hepatic expression of TNFα", "setting": "[2]; [4]", "result": "reduced the hepatic expression"}, {"measurement": "liver triglyceride (TAG) content", "setting": "[2]; [4]", "result": "reduced significantly"}, {"measurement": "liver weight", "setting": "[2]; [4]", "result": "reduced significantly"}, {"measurement": "serum glucose levels", "setting": "[2]; [4]", "result": "reduced the increase glucose levels"}, {"measurement": "hepatic lipid accumulation (histology)", "setting": "[2]; 20 mg/kg/day sc, 10 weeks, vs vehicle, H&E", "result": "reduced significantly"}, {"measurement": "Brunt score", "setting": "[2]; [5]", "result": "corroborated"}, {"measurement": "Steatosis score", "setting": "[2]; [5]", "result": "corroborated"}, {"measurement": "Alanine transaminase (ALT) serum levels", "setting": "[2]; sc, as stated in the summary for Example 6", "result": "reduction"}]}
